Values of other authors in patent US7772228B2, “Method for treatment of bacterial infections with once or twice-weekly administered rifalazil” (priority 1998, dated 2010).

Tested on: M. tuberculosis
Conditions: depending on the degree of resistance to rifampin; cited from earlier work

## CO[C@H]1/C=C/O[C@@]2(C)Oc3c(C)c(O)c4c(O)c(c(/C=N/N5CCN(C)CC5)c(O)c4c3C2=O)NC(=O)/C(C)=C\C=C\[C@H](C)[C@H](O)[C@@H](C)[C@@H](O)[C@@H](C)[C@H](OC(C)=O)[C@@H]1C [Rifampin, rifampin, reference compound]
  MICs for MTB, range: <0.002 to 4.0 µg/mL
